The target in the test is T1, ERO1α (Homo sapiens, UniProt Q96HE7).
T1 construct: endogenous in cells; host or cells: PC-9
T1 sequence (Q96HE7 24-468): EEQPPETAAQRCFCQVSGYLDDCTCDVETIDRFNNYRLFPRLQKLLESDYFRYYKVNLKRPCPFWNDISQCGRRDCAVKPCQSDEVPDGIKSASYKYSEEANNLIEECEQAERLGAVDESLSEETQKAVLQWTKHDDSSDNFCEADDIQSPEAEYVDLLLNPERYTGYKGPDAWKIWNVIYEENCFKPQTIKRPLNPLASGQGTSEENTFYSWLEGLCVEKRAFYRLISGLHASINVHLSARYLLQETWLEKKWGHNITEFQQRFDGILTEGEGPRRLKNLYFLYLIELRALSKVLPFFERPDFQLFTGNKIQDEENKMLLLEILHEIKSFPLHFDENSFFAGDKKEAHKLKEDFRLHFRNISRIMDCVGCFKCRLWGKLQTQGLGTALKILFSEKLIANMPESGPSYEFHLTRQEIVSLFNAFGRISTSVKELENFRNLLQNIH
Kind of test: Cellular thermal shift assay (CETSA) in PC-9 cells, ERO1α. Particulars: 100 μM, 1 hour at 37° C. The class given is cell-based. The source says: To date activity of T151742 towards other flavoenzymes has not been identified at this time. We utilized the Cellular Thermal Shift Assay (CETSA) to determine target engagement of T151742 in vitro using the non-small cell lung cancer (NSCLC) cell line PC-9. The EGFR driven PC-9 cell line was chosen as new treatment strategies are needed in EGFR driven NSCLC as most patients relapse and become resistant to current targeted therapies with development of further mutations such as T790M, C797S as well as emergence of EGFR independent tumors^42, 43. […] First, we determined the aggregation temperature (Tagg) of ERO1α, ERO1β, and LSD-1, which are all FAD dependent enzymes and potential in vitro targets of T15742. […]
Upon addition of T151742, Tagg was quantified for ERO1α, ERO1β, and LSD-1. Quantification of the average of n=3 independent experiments based on western blot analysis for ERO1α, ERO1β, and LSD-1. […] Cellular viability was determined by MTT assay. n=3 independent experiments performed in quadruplicates. ****p<0.0001; by two-way ANOVA.
Cell Lines: PC-9 cell line used was obtained from Sigma Aldrich and grown in RPMI 1640 medium with 10% fetal bovine serum and 1% penicillin/streptomycin. […] Plate was then read on the BioTek Cytation 5 at 530/590 nm. […]

Take `CN(C)c1ccc(/C=C2\Oc3cc(O)ccc3C2=O)cc1` [Compound T151742]: the “Tagg for ERO1α” value was greater than 60 °C and the “shift of Tagg for ERO1α” value is roughly 6 degrees.

The values are drawn from patent US20250064773A1, “TARGETING ERO1 ALPHA WITH AURONE DERIVATIVES” (West Virginia University Board of Governors on behalf of …, priority 2021, published 2025).
